Measured values as given in the NIST ThermoML archive (doi:10.1016/j.jct.2010.05.002).

Experiment: molar heat capacity at constant pressure
Settings: 101.33 kPa, Crystal 2, Vacuum adiabatic calorimetry

Cc1ccc(-c2ccccc2)cc1 [4-methylbiphenyl]
Settings | molar heat capacity at constant pressure [J/K/mol]
8.42 K | 3.698
8.7 K | 3.996
8.96 K | 4.244
9.47 K | 4.835
9.97 K | 5.433
10.28 K | 5.778
10.67 K | 6.273
11.06 K | 6.777
11.44 K | 7.338
11.83 K | 7.812
12.21 K | 8.286
12.59 K | 8.722
12.96 K | 9.194
13.35 K | 9.76
13.72 K | 10.44
14.09 K | 10.74
14.46 K | 11.37
14.83 K | 11.81
15.2 K | 12.22
15.56 K | 12.8
15.92 K | 13.35
16.28 K | 13.95
16.65 K | 14.46
17.01 K | 14.64
17.37 K | 15.38
17.72 K | 16.09
18.08 K | 16.37
18.44 K | 17.11
18.79 K | 17.51
19.88 K | 19.13
20.58 K | 20.29
21.36 K | 21.32
22.14 K | 22.38
22.91 K | 23.6
23.69 K | 24.61
24.46 K | 25.76
25.23 K | 26.8
26 K | 27.57
26.76 K | 28.86
27.53 K | 30.07
28.29 K | 30.9
29.05 K | 32.05
29.81 K | 33.03
30.57 K | 34.28
31.33 K | 35.24
32.09 K | 36.41
32.86 K | 36.83
33.62 K | 38.31
34.37 K | 39.14
35.13 K | 39.93
35.88 K | 41.05
36.64 K | 41.53
37.39 K | 42.34
38.14 K | 43.78
38.9 K | 44.06
39.65 K | 45.4
40.4 K | 45.99
41.15 K | 46.64
41.9 K | 47.81
42.65 K | 48.69
43.4 K | 49.76
44.15 K | 50.64
44.91 K | 50.57
45.66 K | 51.28
46.41 K | 52.33
47.16 K | 53.31
47.91 K | 53.96
48.65 K | 55.09
49.4 K | 56.25
50.15 K | 56.83
50.9 K | 57.26
51.65 K | 58.12
52.4 K | 59.37
53.15 K | 59.9
53.9 K | 60.72
54.64 K | 61.66
55.39 K | 62.7
56.14 K | 63.64
56.89 K | 63.48
57.64 K | 64.25
58.39 K | 64.5
59.13 K | 64.98
59.88 K | 65.47
60.63 K | 66.03
61.37 K | 65.92
62.12 K | 66.39
62.86 K | 67.01
63.6 K | 67.59
64.35 K | 67.75
65.09 K | 68.24
65.83 K | 68.99
66.57 K | 69.46
67.32 K | 69.91
68.06 K | 70.28
68.8 K | 70.75
69.54 K | 72.08
70.28 K | 72.22
71.18 K | 72.29
72.22 K | 73.13
73.27 K | 74.21
74.32 K | 74.62
75.37 K | 75.51
76.42 K | 75.54
77.47 K | 76.16
78.51 K | 77.53
78.8 K | 78.32
79.56 K | 77.92
80.6 K | 79.11
81.65 K | 79.67
82.17 K | 81.46
83.21 K | 81.22
84.78 K | 82.63
85.83 K | 84.24
87.34 K | 85.25
88.37 K | 86.4
89.4 K | 87.09
90.43 K | 87.85
91.47 K | 88.19
92.5 K | 89.19
93.53 K | 89.62
94.55 K | 90.59
95.58 K | 91.13
96.61 K | 92.3
97.64 K | 93.83
98.66 K | 92.61
99.69 K | 94.23
100.72 K | 95.15
101.74 K | 95.13
102.77 K | 95.55
104.82 K | 96.61
105.84 K | 97.41
106.86 K | 98.57
107.88 K | 99.36
108.9 K | 99.57
109.93 K | 100.46
110.95 K | 100.63
111.97 K | 100.49
112.99 K | 102.03
114.01 K | 102.56
115.02 K | 103.36
116.04 K | 104.67
117.06 K | 104.77
118.08 K | 104.33
119.1 K | 105.95
120.12 K | 106.87
121.14 K | 106.67
122.15 K | 107.47
123.17 K | 108.38
124.18 K | 108.38
125.2 K | 108.94
126.21 K | 110.22
127.23 K | 110.82
128.23 K | 111.43
129.25 K | 111
130.26 K | 112.24
131.27 K | 113.68
132.28 K | 113.17
133.29 K | 114.17
134.3 K | 115.39
135.31 K | 115.98
136.32 K | 115.79
137.33 K | 115.95
138.33 K | 116.76
139.34 K | 118.07
140.34 K | 119.05
141.35 K | 119.04
142.35 K | 119.96
143.36 K | 120
144.35 K | 120.48
145.36 K | 120.67
146.36 K | 122
147.36 K | 122.17
148.36 K | 124.22
149.36 K | 124.87
150.36 K | 125.07
151.36 K | 125.72
153.66 K | 127.07
154.92 K | 127.26
155.92 K | 127.72
156.91 K | 128.68
157.91 K | 129.05
158.9 K | 129.98
159.89 K | 130.91
162.88 K | 133.43
163.87 K | 132.72
164.87 K | 133.55
165.85 K | 133.77
166.84 K | 134.91
167.83 K | 135.89
169.79 K | 137.42
170.78 K | 137.22
171.76 K | 137.79
172.74 K | 138.45
173.73 K | 139.11
174.71 K | 140.53
175.69 K | 140.7
176.68 K | 141.47
177.66 K | 142.43
178.64 K | 143.15
179.62 K | 143.76
180.6 K | 144.25
181.58 K | 145.06
182.56 K | 146.17
183.54 K | 146.07
184.52 K | 146.77
185.47 K | 148
186.45 K | 148.42
187.42 K | 148.71
188.4 K | 149.77
189.37 K | 150.31
190.34 K | 151.29
191.32 K | 152.46
192.29 K | 153.07
193.26 K | 153.26
194.23 K | 154.48
195.2 K | 154.92
196.17 K | 155.18
197.14 K | 156.43
198.1 K | 156.66
199.07 K | 156.85
